According to US9617221B2, “Kinase modulators for the treatment of cancer” (Synovo GmbH, priority 2010, dated 2017):
Values joined by “and” are separate entries in the source; they are usually repeats but may differ in a detail not shown here. Identical values can stand only once.

Legend:
Format in all cases: cell-based, mice
NO = NO production by LPS-stimulated macrophages; details: 10 μM, 72 h
T cells = assay: Proliferation of Con A-stimulated T cells; details: 10 μM
Method: (§1) Peritoneal macrophage or splenocytes (lymphocytes and macrophage) were harvested from donor mice using standard techniques. Cells were placed in culture and stimulated with either LPS (10 μg/mL) or concanavalin A 5 μg/mL (Sigma Chemical Co., St Louis, Mo.) in RPMI-1640 medium supplemented with antibiotics, […] 2-mercaptoethanol, 10 mm HEPES buffer and 10% fetal calf serum (FCS) (see Holan et al., 1985) to stimulate macrophage and T-cells respectively. Compounds were added from DMSO stock solutions to a final concentration of 50 μM or less with DMSO not exceeding 1% of total volume. After 72 h, cell supernatant was recovered and the cytokine levels were estimated by ELISA. The effect of compounds on cytokine production was recorded as follows: […]

IL-10 [1] = assay: IL-10 production by LPS-stimulated murine peritoneal macrophage (ELISA); details: for IL-10 by ELISA, % of solvent treated control: murine peritoneal macrophage; for IL-10 (LPS, Macrophages), amount of cytokine: 10 μM, 72 h
Method: as §1

IFN-g = IFN-g production by ConA-stimulated T cells; details: 10 μM, 72 h
Method: as §1

IL-6 = IL-6 production by LPS-stimulated macrophages; details: 10 μM, 72 h
Method: as §1

IL-1β = IL-1β production by LPS-stimulated macrophages; details: 5 μM, 72 h
Method: as §1

IL-2 = IL-2 production by ConA-stimulated T cells; details: 10 μM, 72 h
Method: as §1

IL-10 [2] = assay: IL-10 production by ConA-stimulated T cells; details: 10 μM, 72 h
Method: as §1

IL-4 = IL-4 production, Con A, spleen; details: 5 μM, 72 h
Method: as §1

B cells = assay: Proliferation of LPS-stimulated B cells; details: 10 μM

| SMILES | NO (LPS, Macrophages), % of control treated with solvent alone (NO) | Proliferation (Con A, T cells) (T cells) | IL-10 by ELISA, % of solvent treated control (IL-10 [1]; 1 μM inhibitor in medium) | IL-10 by ELISA, % of solvent treated control (IL-10 [1]; 5 μM inhibitor in medium) | IL-10 by ELISA, % of solvent treated control (IL-10 [1]; 20 μM inhibitor in medium) | IFN-g (ConA, T cells), amount of cytokine (IFN-g) | IL-6 (LPS, Macrophages), amount of cytokine (IL-6) | IL-1β (Macrophages, LPS), amount of cytokine (IL-1β) | IL-2 (ConA, T cells), amount of cytokine (IL-2) | IL-10 (ConA, T cells), amount of cytokine (IL-10 [2]) | IL-10 by ELISA, % of solvent treated control (IL-10 [1]; 10 μM inhibitor in medium) | IL-10 (LPS, Macrophages), amount of cytokine (IL-10 [1]) | IL-4 (Con A, spleen), amount of cytokine (IL-4) | Proliferation (LPS, B cells) (B cells) | IL-10 by ELISA, % of solvent treated control (IL-10 [1]; 1.25 μM inhibitor in medium) | IL-10 by ELISA, % of solvent treated control (IL-10 [1]; 0.31 μM inhibitor in medium) | IL-10 by ELISA, % of solvent treated control (IL-10 [1]; 2 μM inhibitor in medium) | IL-10 by ELISA, % of solvent treated control (IL-10 [1]; 50 μM inhibitor in medium) |
| --- | --- | --- | --- | --- | --- | --- | --- | --- | --- | --- | --- | --- | --- | --- | --- | --- | --- | --- |
| CC[C@H]1OC(=O)[C@H](C)[C@@H](OC2CC(C)(OC)C(O)C(C)O2)[C@H](C)[C@@H](OC2OC(C)CC(NC)C2O)C(C)(O)C[C@@H](C)C(=O)[C@H](C)[C@@H](O)C1(C)O (stereo partly drawn) [Compound 16, 3′-desmethyl erythromycin] | 63 % of control treated with solvent alone | 0 % of control treated with solvent alone | 117 % of solvent treated control | 99 % of solvent treated control | 8 % of solvent treated control | 2 % of control treated with solvent alone | 85 % of control treated with solvent alone | 85 % of control treated with solvent alone |  |  |  |  |  |  |  |  |  |  |
| CC[C@H]1OC(=O)[C@H](C)[C@@H](O[C@H]2C[C@@](C)(OC)[C@@H](O)[C@H](C)O2)[C@H](C)[C@@H](O[C@@H]2O[C@H](C)C[C@H](N(C)CC3CO3)[C@H]2O)[C@](C)(O)C[C@@H](C)C(=O)[C@H](C)[C@@H](O)[C@]1(C)O (stereo partly drawn) [Compound 18, 3′-desmethyl-3′-oxiranylmethyl erythromycin] | 47 % of control treated with solvent alone and 54 % of control treated with solvent alone and 65 % of control treated with solvent alone |  | 124 % of solvent treated control | 109 % of solvent treated control | 57 % of solvent treated control |  | 90 % of control treated with solvent alone and 109 % of control treated with solvent alone and 106 % of control treated with solvent alone | 104 % of control treated with solvent alone and 81 % of control treated with solvent alone and 70 % of control treated with solvent alone | 52 % of control treated with solvent alone and 86 % of control treated with solvent alone | 38 % of control treated with solvent alone and 70 % of control treated with solvent alone | 109 % of solvent treated control | 110 % of control treated with solvent alone and 108 % of control treated with solvent alone | 91 % of control treated with solvent alone and 84 % of control treated with solvent alone |  |  |  |  |  |
| CC[C@H]1OC(=O)[C@H](C)[C@@H](O[C@H]2C[C@@](C)(OC)[C@@H](O)[C@H](C)O2)[C@H](C)[C@@H](O[C@@H]2O[C@H](C)C[C@H](N(C)CC(O)CSc3nc(-c4ccc(F)cc4)c(-c4ccncc4)[nH]3)[C@H]2O)[C@](C)(O)C[C@@H](C)CN(C)[C@H](C)[C@@H](O)[C@]1(C)O (stereo partly drawn) [Compound 20] |  | 0 % of control treated with solvent alone |  | −12 % of solvent treated control | −12 % of solvent treated control |  |  | 34 % of control treated with solvent alone |  |  |  |  | −5 % of control treated with solvent alone | −1 % of control treated with solvent alone | −11 % of solvent treated control |  |  |  |
| CC[C@H]1OC(=O)[C@H](C)[C@@H](O[C@H]2C[C@@](C)(OC)[C@@H](O)[C@H](C)O2)[C@H](C)[C@@H](O[C@@H]2O[C@H](C)C[C@H](N(C)CC(O)CSc3nc(-c4ccc(F)cc4)c(-c4ccncc4)[nH]3)[C@H]2O)[C@](C)(O)C[C@@H](C)C(=O)[C@H](C)[C@@H](O)[C@]1(C)O (stereo partly drawn) [Compound 21] |  |  |  | 1 % of solvent treated control | −8 % of solvent treated control | 0 % of control treated with solvent alone | 101 % of control treated with solvent alone | 101 % of control treated with solvent alone and 143 % of control treated with solvent alone |  |  | −13 % of solvent treated control |  |  |  | 95 % of solvent treated control | 132 % of solvent treated control |  |  |
| CC[C@H]1OC(=O)[C@H](C)[C@@H](O)[C@H](C)[C@@H](O[C@@H]2O[C@H](C)C[C@H](N(C)CC(O)CSc3nc(-c4ccc(F)cc4)c(-c4ccncc4)[nH]3)[C@H]2O)[C@](C)(O)C[C@@H](C)CN(C)[C@H](C)[C@@H](O)[C@]1(C)O (stereo partly drawn) [Compound 22] | 69 % of control treated with solvent alone | 10 % of control treated with solvent alone |  | 43 % of solvent treated control | −3 % of solvent treated control | 41 % of control treated with solvent alone | 116 % of control treated with solvent alone | 90 % of control treated with solvent alone and 106 % of control treated with solvent alone | 29 % of control treated with solvent alone | 144 % of control treated with solvent alone | 13 % of solvent treated control | 13 % of control treated with solvent alone | 237 % of control treated with solvent alone and 407 % of control treated with solvent alone |  | 86 % of solvent treated control | 103 % of solvent treated control |  |  |
| CC[C@H]1OC(=O)[C@H](C)[C@@H](O[C@H]2C[C@@](C)(OC)[C@@H](O)[C@H](C)O2)[C@H](C)[C@@H](O[C@@H]2O[C@H](C)C[C@H](N(C)CCCC(=O)OCC(O)CSc3nc(-c4ccc(F)cc4)c(-c4ccncc4)[nH]3)[C@H]2O)[C@](C)(O)C[C@@H](C)CN(C)[C@H](C)[C@@H](O)[C@]1(C)O (stereo partly drawn) [Compound 43g] |  | 3 % of control treated with solvent alone |  | −12 % of solvent treated control | −12 % of solvent treated control |  |  | 28 % of control treated with solvent alone |  |  |  |  | 125 % of control treated with solvent alone | −1 % of control treated with solvent alone | 26 % of solvent treated control |  |  |  |
| CC[C@H]1OC(=O)[C@H](C)[C@@H](O[C@H]2C[C@@](C)(OC)[C@@H](O)[C@H](C)O2)[C@H](C)[C@@H](O[C@@H]2O[C@H](C)C[C@H](N(C)CCCC(=O)OCC(O)CSc3nc(-c4ccc(F)cc4)c(-c4ccnc(NC(C)c5ccccc5)c4)[nH]3)[C@H]2O)[C@](C)(O)C[C@@H](C)CN(C)[C@H](C)[C@@H](O)[C@]1(C)O (stereo partly drawn) [Compound 43i] |  |  |  |  |  |  | 33 % of control treated with solvent alone and 32 % of control treated with solvent alone |  |  |  | 3 % of solvent treated control |  | 8 % of control treated with solvent alone |  |  |  | 25 % of solvent treated control | 0 % of solvent treated control |
